How the values were obtained:
[1] = humans; cited from earlier work
[2] = Preclinical pharmacokinetic studies; type: in vivo; settings: mice
[3] = Preclinical pharmacokinetic studies; type: in vivo; settings: monkeys
[4] = Preclinical pharmacokinetic studies; type: in vivo; settings: dogs
CYP3A4 = CYP3A4 (Homo sapiens, UniProt P08684); test: Preclinical studies: metabolism of compound (39) to release esketamine; type: in vitro ADME
[5] = Two-stage dissolution of tablets (0.1N HCl 1 hour, then 50 mM acetate buffer pH 4.5); type: physicochemical; settings: FIG. 2
Procedure: The two-stage dissolution profiles were obtain as described in Example 5.
A two-stage dissolution apparatus was used to measure the dissolution profile of the tablets.
In the first stage, the tablets were immersed in 0.1N HCl a dissolution medium for 1 hour.
The dissolution medium was then immediately charged to a 50 mM acetate buffer at pH 4.5 immediately following 1 hour sampling via addition of 100 mM acetate buffer with appropriate pH and continued through 18 hours.
Two-stage dissolution profiles for the tablets were obtained using a USP 1 dissolution apparatus. The tablets were first added to 500 mL of a 0.1N hydrochloric acid solution and agitated at 100 RPM for 1 hour at 37° C. Samples (1 mL) were withdrawn at 0, 0.5 and 1 hours. The acid solution was then replaced with 1,000 mL of a 50 mM pH 4.5 acetate buffer solution and the tablets agitated at 100 RPM for up to 24 hours at 37° C. Samples (1 mL) were withdrawn at 1.5, 2, 3, 4, 6, 8, 12, 16, 20, and 24 hours. Solution samples were withdrawn at intervals and the concentration of Compound (39) was measured using high pressure liquid chromatography mass spectroscopy.

[6] = Preclinical pharmacokinetic studies: dose proportionality and repeated dosing; type: in vivo
CYP2C19 = CYP2C19 (Homo sapiens, UniProt P33261); test: Preclinical studies: metabolism of compound (39) to release esketamine; type: in vitro ADME
CYP2D6 = CYP2D6 (Homo sapiens, UniProt P10635); test: as above; type: in vitro ADME
[7] = Preclinical pharmacokinetic studies; type: in vivo; settings: rats

Chain of CYP3A4 (P08684 whole entry, species assumed): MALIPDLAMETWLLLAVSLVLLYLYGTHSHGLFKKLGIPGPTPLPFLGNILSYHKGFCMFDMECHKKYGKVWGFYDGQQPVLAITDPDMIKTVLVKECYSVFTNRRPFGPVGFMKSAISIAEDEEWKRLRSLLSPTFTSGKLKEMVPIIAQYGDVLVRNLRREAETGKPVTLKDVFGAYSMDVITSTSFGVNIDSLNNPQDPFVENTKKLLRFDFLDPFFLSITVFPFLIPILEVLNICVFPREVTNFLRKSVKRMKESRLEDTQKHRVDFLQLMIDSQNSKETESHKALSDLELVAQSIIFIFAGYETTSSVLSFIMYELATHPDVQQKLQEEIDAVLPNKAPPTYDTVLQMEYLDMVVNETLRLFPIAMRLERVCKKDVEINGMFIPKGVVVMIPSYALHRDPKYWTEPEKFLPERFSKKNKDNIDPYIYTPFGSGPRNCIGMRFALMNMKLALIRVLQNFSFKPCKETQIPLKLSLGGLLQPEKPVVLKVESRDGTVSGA
Chain of CYP2C19 (P33261 whole entry, species assumed): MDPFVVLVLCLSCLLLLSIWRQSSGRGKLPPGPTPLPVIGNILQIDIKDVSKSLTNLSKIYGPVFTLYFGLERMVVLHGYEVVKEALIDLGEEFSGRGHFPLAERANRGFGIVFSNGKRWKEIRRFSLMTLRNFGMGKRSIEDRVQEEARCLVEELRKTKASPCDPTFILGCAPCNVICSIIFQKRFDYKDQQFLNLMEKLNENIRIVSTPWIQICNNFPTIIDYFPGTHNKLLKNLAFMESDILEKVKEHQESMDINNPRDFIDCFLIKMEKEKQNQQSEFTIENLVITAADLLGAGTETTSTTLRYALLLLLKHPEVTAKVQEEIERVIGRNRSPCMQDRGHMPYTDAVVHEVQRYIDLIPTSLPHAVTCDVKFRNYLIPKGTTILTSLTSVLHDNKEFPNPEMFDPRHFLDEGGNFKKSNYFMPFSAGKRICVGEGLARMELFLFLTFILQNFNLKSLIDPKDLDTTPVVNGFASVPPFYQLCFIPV
Chain of CYP2D6 (P10635 whole entry, species assumed): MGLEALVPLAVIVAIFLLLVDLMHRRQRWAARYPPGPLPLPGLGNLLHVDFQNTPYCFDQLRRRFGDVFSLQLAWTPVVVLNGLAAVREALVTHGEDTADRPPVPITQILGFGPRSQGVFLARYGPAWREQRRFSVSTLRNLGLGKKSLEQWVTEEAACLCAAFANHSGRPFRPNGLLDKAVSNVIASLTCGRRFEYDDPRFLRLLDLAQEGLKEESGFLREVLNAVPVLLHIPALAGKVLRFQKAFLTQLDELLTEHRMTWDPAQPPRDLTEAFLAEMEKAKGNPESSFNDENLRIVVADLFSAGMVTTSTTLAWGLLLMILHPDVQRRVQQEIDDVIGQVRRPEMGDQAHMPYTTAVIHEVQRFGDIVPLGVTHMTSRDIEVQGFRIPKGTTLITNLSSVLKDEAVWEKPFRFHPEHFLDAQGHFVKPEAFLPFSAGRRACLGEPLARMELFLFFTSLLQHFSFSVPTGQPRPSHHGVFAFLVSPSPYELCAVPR

Row | Structure (SMILES) | oral bioavailability (% F) [1] | absorption and conversion to esketamine [2] | absorption and conversion to esketamine [3] | absorption and conversion to esketamine [4] | metabolism by CYP3A4 to release esketamine (CYP3A4) | effect of sodium lauryl sulfate on solubility of compound (39) ([5]; acid stage (0.1N HCl), tablets with and without sodium lauryl sulfate) | dissolution rate ([5]; pH 4.5, tablets with and without sodium lauryl sulfate) | accumulation of compound (39) and its metabolites ([6]; following repeated dosing) | systemic exposure, expressed as AUC: dose proportionality ([6]; for compound (39), esketamine, and noresketamine) | metabolism by CYP2C19 to release esketamine (CYP2C19) | metabolism by CYP2D6 to release esketamine (CYP2D6) | absorption and conversion to esketamine [7]
1 | CNC1(c2ccccc2Cl)CCCCC1=O (stereo not drawn) [Ketamine, 2-(2-chlorophenyl)-2-(methylamino)cyclohexan-one] | about 20% |  |  |  |  |  |  |  |  |  |  | 
2 | CC(C)[C@@H](C(=O)OCOC(=O)N(C)[C@]1(c2ccccc2Cl)CCCCC1=O)N(C)C [compound (39), ((((S)-1-(2-chlorophenyl)-2-oxocyclohexyl)(methyl)carbamoyl)oxy)methyl dimethyl-L-valinate] |  | rapid absorption and conversion to esketamine | rapid absorption and conversion to esketamine | rapid absorption and conversion to esketamine | metabolized | reduces the solubility | approximately independent of the amount of sodium lauryl sulfate | not observed | less than to greater than dose proportional | metabolized | metabolized | rapid absorption and conversion to esketamine

From US12396966B2, “Pharmaceutical compositions and oral dosage forms of ketamine derivatives” (XWPHARMA LTD., priority 2021, dated 2025)
